Test results taken from PubChem BioAssay AID844 (SRMLSC, 2007).
The source made the active and inactive calls. The rule behind the calls is not given here.

System: MRP1 cells, doxorubicin viability shift, 10 uM compound
Assay: viability protection against doxorubicin, MRP-1 line – cell-based, doxorubicin EC50 shift, dose response (AID 844)
Details: for EC50: measured here: doxorubicin EC50 with compound

SMILES | fold increase in Dox EC50 | EC50 [µM]
Cc1c(C(=O)Nc2nnc(C(F)(F)F)s2)oc2ccccc12 | 2.05 | 11
O=C(CCN1C(=O)/C(=C/c2ccccc2)SC1=S)NNC(=O)c1cccnc1 | 1.27 (inactive) | 6.88
Cc1ccc(C)c2sc(NC(=O)c3ccc(N4CCCCC4)c([N+](=O)[O-])c3)nc12 | 1.05 (inactive) | 5.66
Cn1c(=O)oc2cc(S(=O)(=O)N3CCCC(C(=O)NCC4COc5ccccc5O4)C3)ccc21 (configuration not stated) | 0.53 (inactive) | 2.86
Cn1c(=O)c2c(nc(CN3CCOCC3)n2CCc2ccccc2)n(C)c1=O | 0.31 (inactive) | 1.68
Brc1ccc(OCc2nnc3n2CCC3)cc1 | 1.67 | 9.02
O=C(CSc1ccccc1)Nc1nnc(COc2ccc(Cl)cc2)s1 | 0.43 (inactive) | 2.34
COc1ccc(-c2nc(-c3cccc(C)c3)no2)cc1OC | 0.69 (inactive) | 3.73
O=C(O)c1ccc(N/N=C/c2ccc(F)c(F)c2)cc1 | 1.31 (inactive) | 7.07
CC(CCc1ccccc1)NC(=O)C1CCN(C(=O)c2sccc2-n2cccc2)CC1 (configuration not stated) | 0.28 (inactive) | 1.51
COc1ccc(CN=C2NC(=O)CC(C(=O)Nc3ccc(F)cc3)S2)cc1 (configuration not stated) | 1.01 (inactive) | 5.47
Cc1ccc(Nc2nnc(-c3ccc(N4CCOCC4)c([N+](=O)[O-])c3)c3ccccc23)cc1 | 0.61 (inactive) | 3.28
CCC(=O)N1CCN=C1SCc1ccccc1 | 0.74 (inactive) | 3.98
O=C(Nc1nc(-c2cccs2)c(-c2cccs2)s1)C1(c2ccccc2)CC1 | 0.66 (inactive) | 3.58
O=c1[nH]c(C2CCCN(S(=O)(=O)c3ccccc3)C2)nc2c1nnn2Cc1ccccc1 (configuration not stated) | 0.11 (inactive) | 0.603
COc1ccccc1CNC(=O)Cn1cc2c(n1)CCCC2 | 1.66 | 8.94
Cc1cc(Br)ccc1NC(=O)CNC(=O)CN1C(=O)NC2(CCCCCC2)C1=O | 1.34 (inactive) | 7.25
CC(C)Oc1ccc(-c2nn(-c3ccccc3)cc2/C=c2\sc3ncnn3c2=O)cc1 | 0.82 (inactive) | 4.4
CC(=O)N1CCN=C1SCc1ccc(Cl)cc1 | 1.06 (inactive) | 5.75
O=C(NC(=S)NC(=O)c1ccccc1F)c1ccccc1F | 1.44 (inactive) | 7.79
O=C(CSc1ncn[nH]1)Nc1ccc(Br)cc1F | 0.98 (inactive) | 5.28
CC(NC(=O)C12CC3CC(CC(C3)C1)C2)c1ccc2c(c1)OCCO2 (configuration not stated) | 1.06 (inactive) | 5.7
CN=C1S/C(=C\c2cc(C)n(-c3ccccc3F)c2C)C(=O)N1C | 0.65 (inactive) | 3.49
COc1ccc(OC)c(-c2csc(NC(=O)C3c4ccccc4Oc4ccccc43)n2)c1 | 0.96 (inactive) | 5.16
COc1ccc(C(=O)NCc2ccc(-c3nc4ccccc4s3)cc2)cc1 | 1.57 | 8.47
CCCCCn1c(CN2CCCCC2C)nc2c1c(=O)n(C)c(=O)n2C (configuration not stated) | 0.16 (inactive) | 0.883

SMILES | fold increase in Dox EC50 | EC50 [µM]
Cc1ccc(-c2nnn(CC(=O)N(c3ccccc3F)C(C(=O)NCC3CCCO3)c3c[nH]c4ccccc34)n2)cc1 (configuration not stated) | 0.5 (inactive) | 2.67
CCOc1ccccc1CNC(=O)c1cc2oc3ccccc3c2n1CC | 1.24 (inactive) | 6.7
CSC1=NP(=S)(SC)N2CCCC2=C1C#N (configuration not stated) | 0.97 (inactive) | 5.24
CCOC(=O)N1CCN(C(=O)CSc2nnc(COc3ccc(Cl)cc3)o2)CC1 | 1.03 (inactive) | 5.55
O=C(CCN1C(=O)/C(=C\c2ccccc2)SC1=S)NNC(=O)c1cccnc1 | 1.2 (inactive) | 6.49
O=C(NC(=S)Nc1ccccc1N1CCCCC1)c1ccc(-c2cccc([N+](=O)[O-])c2)o1 | 1.3 (inactive) | 7.02
Cn1cc(Br)c(C(=O)NNC(=O)c2ccc(Br)cc2)n1 | 0.98 (inactive) | 5.26
CCOC(=O)CN1C(=O)C(C)(C)Oc2ccc(C(=O)Nc3ccccc3OC)cc21 | 0.85 (inactive) | 4.6
O=C(Nc1nc(-c2cccc([N+](=O)[O-])c2)cs1)C(c1ccccc1)c1ccccc1 | 1.69 | 9.1
Cc1ccc(N2C(=O)Nc3ccc(Br)cc3C2(O)C(=O)NCCCN(C)C)cc1C (configuration not stated) | 0.69 (inactive) | 3.72
COc1cccc(Nc2nc3ccccc3nc2-n2nc(C)cc2C)c1 | 0.35 (inactive) | 1.89
O=C(COc1cccnc1[N+](=O)[O-])Nc1ccc2c(c1)OC(F)(F)O2 | 0.7 (inactive) | 3.8
CC(C)(C)NC(=O)c1cccc(NC(=O)Cc2ccc(Br)cc2)c1 | 0.97 (inactive) | 5.23
Cc1c(NC(=O)CSc2ccc(Cl)cc2)cccc1-c1nc2ncccc2o1 | 0.99 (inactive) | 5.34
CC1(C)Cc2c(sc3nnn(Cc4ccc(Cl)cc4)c(=O)c23)CO1 | 0.85 (inactive) | 4.57
CCOC(=O)c1nnc(-c2ccccc2)nc1Oc1ccccc1Cl | 0.99 (inactive) | 5.34
C=CCc1c(C)nc(-c2ccccc2)nc1N/N=C/c1ccccc1 | 0.87 (inactive) | 4.7
CCc1nn2c(N)c(/C=C3\C=Nc4ccccc43)c(=O)nc2s1 | 1.43 (inactive) | 7.74
COc1ccc(C2C(C(=O)Nc3cccc(C)n3)CCC(=O)N2c2ccc(OC)cc2)cc1 (configuration not stated) | 0.64 (inactive) | 3.44
Cc1ccc2nc(NC(=O)CCNS(=O)(=O)c3cccs3)sc2c1 | 0.56 (inactive) | 3
Fc1ccc(N2CCN(c3ncnc4c3nnn4Cc3ccccc3Cl)CC2)cc1 | 0.86 (inactive) | 4.67
Cc1noc(/C=C/N(C)C)c1S(=O)(=O)N1CCCC(C(=O)NCc2cccs2)C1 (configuration not stated) | 1.32 (inactive) | 7.11
C=CCNC(=O)c1ccccc1NC(=O)c1ccc(Cl)c(S(=O)(=O)Nc2cccc(C)c2C)c1 | 0.36 (inactive) | 1.96
COc1ccc(-n2ncc3c(=O)n(CC(=O)N4c5ccccc5CC4C)cnc32)cc1 (configuration not stated) | 0.82 (inactive) | 4.44
CNc1oc(-c2ccc(C)cc2)nc1P(=O)(c1ccccc1)c1ccccc1 | 0.95 (inactive) | 5.13
CCCN1C(=O)/C(=N\OCC(=O)NC23CC4CC(CC(C4)C2)C3)c2ccccc21 | 1.01 (inactive) | 5.43

SMILES | fold increase in Dox EC50 | EC50 [µM]
Cc1nnc(NC(=O)c2ccco2)s1 | 1.16 (inactive) | 6.28
O=c1cc(CN2CCN(c3cccc(Cl)c3)CC2)c2cc3c(cc2o1)CCCC3 | 0.74 (inactive) | 3.98
CCOC(=O)Cc1csc(NC(=S)NC(=O)C(C)(C)C)n1 | 1.2 (inactive) | 6.45
O=C(Nc1nc(=O)n(C(=O)C2CC2)s1)c1ccccc1 | 0.55 (inactive) | 2.97
S=C(N/N=C/c1ccc(Cl)cc1)N1CCOCC1 | 1.22 (inactive) | 6.57
Cc1ccc(S(=O)(=O)N2CCC(C(=O)N[C@@H](C)C(=O)Nc3ccc4c(c3)OCO4)CC2)cc1 | 1.43 (inactive) | 7.7
COc1ccccc1NC(=O)CSC1=NCCN1 | 0.68 (inactive) | 3.7
CCNc1oc(-c2cccc3ccccc23)nc1C#N | 0.68 (inactive) | 3.68
Cc1ccc(CCNC(=O)C2CCCN2S(=O)(=O)c2ccc3c(c2)CCC(=O)N3)cc1 (configuration not stated) | 0.64 (inactive) | 3.46
Cc1cc(C)n(CCc2nc(-c3ccc(-c4ccccc4)cc3)cs2)n1 | 1.82 | 9.8
CC/C(=N\NC(=O)C(N)=O)c1ccccc1O | 0.61 (inactive) | 3.29
Cc1sc2nc(C3CC3)nc(N3CCN(S(=O)(=O)c4ccc(F)cc4)CC3)c2c1C | 0.3 (inactive) | 1.63
O=C1c2ccccc2-c2nc3ccccc3n21 | 1.09 (inactive) | 5.87
COc1ccc(-n2c(SCC(=O)Nc3ccccc3)nc3c(c2=O)SCC3)cc1 | 0.22 (inactive) | 1.18
Cc1ccccc1Cn1ccc(NC(=O)c2onc(C)c2Cl)n1 | 1.15 (inactive) | 6.24
COC(=O)c1ccc(OC)c(CSc2nnc(COc3ccc(Cl)cc3)o2)c1 | 1.44 (inactive) | 7.77
O=C1CC(N2CCN(c3nc4ccccc4s3)CC2)C(=O)N1c1ccc(F)cc1 (configuration not stated) | 1.18 (inactive) | 6.38
CCOc1ccc(NC(=O)Nc2cc(-c3ccccc3)sc2C(=O)OC)cc1 | 0.62 (inactive) | 3.34
CCNc1sc(C(=O)c2cccs2)c(N)c1-c1nc2ccccc2s1 | 0.59 (inactive) | 3.17
O=C(OC1CCc2ccccc2C1=O)c1ccccc1O (configuration not stated) | 0.69 (inactive) | 3.73
CCN(CC)C(=O)C(=O)c1c(-c2ccccc2)[nH]c2ccccc12 | 2.22 | 12
COc1ccccc1NS(=O)(=O)c1cc(NC(=O)/C=C/c2cccs2)ccc1N1CCOCC1 | 0.81 (inactive) | 4.36
COc1ccccc1C1CC(c2ccc(Cl)cc2Cl)Nc2nc(N)nn21 (configuration not stated) | 0.95 (inactive) | 5.11
COc1ccc(N2C(S)=C(C#N)C(=O)NC2c2ccco2)cc1 (configuration not stated) | 0.41 (inactive) | 2.2
